These results are taken from article PMC7026418, “The kinase polypharmacology landscape of clinical PARP inhibitors” (Scientific Reports, 2020).

Common to all, as to test: biochemical
Design in all cases: DiscoveRx KINOMEscan active site-directed competition binding; percent of control kinase bound to immobilised ligand

For test [1], the target named is CDK9 (Homo sapiens, UniProt P50750).
Test [2] addresses T1, PIP5K2C (Homo sapiens, UniProt Q8TBX8).
T1 construct: gene PIP4K2C
T1 sequence (Q8TBX8 1-421): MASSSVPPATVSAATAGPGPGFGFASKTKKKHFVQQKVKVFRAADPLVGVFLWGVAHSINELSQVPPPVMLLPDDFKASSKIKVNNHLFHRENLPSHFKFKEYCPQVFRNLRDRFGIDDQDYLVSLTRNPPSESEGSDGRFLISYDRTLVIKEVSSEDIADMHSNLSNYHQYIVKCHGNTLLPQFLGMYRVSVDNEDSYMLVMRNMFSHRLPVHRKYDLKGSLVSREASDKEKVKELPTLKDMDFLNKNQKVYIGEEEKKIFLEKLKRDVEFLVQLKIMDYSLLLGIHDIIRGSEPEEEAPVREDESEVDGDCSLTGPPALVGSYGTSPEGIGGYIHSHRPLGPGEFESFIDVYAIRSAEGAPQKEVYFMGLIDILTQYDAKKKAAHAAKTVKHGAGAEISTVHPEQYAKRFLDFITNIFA

For test [3], the target named is PIK3CA(C420R) (Homo sapiens, UniProt P42336, C420R).
Chain of PIK3CA(C420R) (P42336 whole entry C420R): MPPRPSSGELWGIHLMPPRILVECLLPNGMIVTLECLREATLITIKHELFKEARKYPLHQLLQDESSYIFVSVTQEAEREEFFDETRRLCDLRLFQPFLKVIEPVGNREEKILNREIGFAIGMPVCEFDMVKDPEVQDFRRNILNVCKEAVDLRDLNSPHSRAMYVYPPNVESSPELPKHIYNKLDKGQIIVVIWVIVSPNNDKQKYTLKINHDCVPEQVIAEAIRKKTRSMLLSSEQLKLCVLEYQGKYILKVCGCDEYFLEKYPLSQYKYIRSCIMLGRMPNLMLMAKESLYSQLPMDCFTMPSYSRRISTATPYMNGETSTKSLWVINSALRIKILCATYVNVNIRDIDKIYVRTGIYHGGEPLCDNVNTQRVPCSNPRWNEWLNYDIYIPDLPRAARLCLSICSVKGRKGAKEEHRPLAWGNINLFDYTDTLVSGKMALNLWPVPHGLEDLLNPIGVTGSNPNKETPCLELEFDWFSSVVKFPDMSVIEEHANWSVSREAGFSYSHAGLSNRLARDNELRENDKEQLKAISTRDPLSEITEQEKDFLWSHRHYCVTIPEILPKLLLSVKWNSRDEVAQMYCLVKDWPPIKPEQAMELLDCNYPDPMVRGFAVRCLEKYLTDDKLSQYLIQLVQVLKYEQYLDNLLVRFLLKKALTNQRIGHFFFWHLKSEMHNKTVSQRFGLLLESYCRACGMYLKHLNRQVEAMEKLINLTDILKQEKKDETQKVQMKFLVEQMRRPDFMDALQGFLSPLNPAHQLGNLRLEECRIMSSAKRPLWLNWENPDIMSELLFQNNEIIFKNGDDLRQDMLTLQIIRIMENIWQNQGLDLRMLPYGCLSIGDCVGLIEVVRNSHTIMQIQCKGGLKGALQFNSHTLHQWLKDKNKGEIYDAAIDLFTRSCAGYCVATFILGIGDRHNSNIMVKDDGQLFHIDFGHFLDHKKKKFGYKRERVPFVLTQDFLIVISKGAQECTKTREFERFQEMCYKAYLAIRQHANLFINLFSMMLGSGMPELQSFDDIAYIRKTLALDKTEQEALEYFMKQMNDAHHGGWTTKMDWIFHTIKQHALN
Test [4] has as its target CDKL3 (Homo sapiens, UniProt Q8IVW4).
In test [5] the target is PIP5K1A (Homo sapiens, UniProt Q99755).
Chain of PIP5K1A (Q99755 whole entry): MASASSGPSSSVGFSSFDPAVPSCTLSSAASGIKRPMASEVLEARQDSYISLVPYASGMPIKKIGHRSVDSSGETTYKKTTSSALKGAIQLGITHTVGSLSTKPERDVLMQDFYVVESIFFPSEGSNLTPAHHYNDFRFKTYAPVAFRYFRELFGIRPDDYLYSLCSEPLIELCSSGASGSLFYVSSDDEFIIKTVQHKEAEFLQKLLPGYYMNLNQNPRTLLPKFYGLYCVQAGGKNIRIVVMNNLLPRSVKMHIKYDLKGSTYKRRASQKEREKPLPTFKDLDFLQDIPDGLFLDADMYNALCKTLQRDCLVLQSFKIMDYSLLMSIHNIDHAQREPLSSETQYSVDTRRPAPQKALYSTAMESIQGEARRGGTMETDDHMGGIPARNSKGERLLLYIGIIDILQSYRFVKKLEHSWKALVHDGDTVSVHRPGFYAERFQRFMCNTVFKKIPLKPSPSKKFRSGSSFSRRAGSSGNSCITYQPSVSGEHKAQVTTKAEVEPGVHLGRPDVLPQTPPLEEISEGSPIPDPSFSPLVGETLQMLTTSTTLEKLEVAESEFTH
Test [6] concerns the target T2, TNNI3K (Homo sapiens, UniProt Q59H18).
T2 sequence (Q59H18 1-835): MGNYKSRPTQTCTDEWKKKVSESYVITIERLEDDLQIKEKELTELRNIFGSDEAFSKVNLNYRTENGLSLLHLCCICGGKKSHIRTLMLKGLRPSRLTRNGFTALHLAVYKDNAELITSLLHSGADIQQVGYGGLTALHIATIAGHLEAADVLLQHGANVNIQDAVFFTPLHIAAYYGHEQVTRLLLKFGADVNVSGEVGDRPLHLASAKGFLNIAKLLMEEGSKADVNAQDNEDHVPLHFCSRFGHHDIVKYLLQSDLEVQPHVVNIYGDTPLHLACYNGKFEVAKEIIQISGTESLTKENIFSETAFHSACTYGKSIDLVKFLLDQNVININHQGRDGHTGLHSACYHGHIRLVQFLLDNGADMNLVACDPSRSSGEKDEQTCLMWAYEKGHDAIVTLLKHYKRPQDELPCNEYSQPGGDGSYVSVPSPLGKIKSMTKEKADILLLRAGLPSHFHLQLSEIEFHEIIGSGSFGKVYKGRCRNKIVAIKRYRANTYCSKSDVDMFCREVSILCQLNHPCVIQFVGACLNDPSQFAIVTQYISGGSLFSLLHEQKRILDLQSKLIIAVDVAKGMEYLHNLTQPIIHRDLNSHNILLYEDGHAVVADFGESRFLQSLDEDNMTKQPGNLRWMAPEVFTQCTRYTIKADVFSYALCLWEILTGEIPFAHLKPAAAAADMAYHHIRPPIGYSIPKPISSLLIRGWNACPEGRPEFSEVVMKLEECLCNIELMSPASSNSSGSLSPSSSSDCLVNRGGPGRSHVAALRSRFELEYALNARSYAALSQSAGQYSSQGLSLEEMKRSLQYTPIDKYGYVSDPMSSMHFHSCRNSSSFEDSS

Test [7] concerns the target CSNK1G2 (Homo sapiens, UniProt P78368).
Test [8] deals with T3, CDKL5 (Homo sapiens, UniProt O76039).
T3 sequence (O76039 1-960): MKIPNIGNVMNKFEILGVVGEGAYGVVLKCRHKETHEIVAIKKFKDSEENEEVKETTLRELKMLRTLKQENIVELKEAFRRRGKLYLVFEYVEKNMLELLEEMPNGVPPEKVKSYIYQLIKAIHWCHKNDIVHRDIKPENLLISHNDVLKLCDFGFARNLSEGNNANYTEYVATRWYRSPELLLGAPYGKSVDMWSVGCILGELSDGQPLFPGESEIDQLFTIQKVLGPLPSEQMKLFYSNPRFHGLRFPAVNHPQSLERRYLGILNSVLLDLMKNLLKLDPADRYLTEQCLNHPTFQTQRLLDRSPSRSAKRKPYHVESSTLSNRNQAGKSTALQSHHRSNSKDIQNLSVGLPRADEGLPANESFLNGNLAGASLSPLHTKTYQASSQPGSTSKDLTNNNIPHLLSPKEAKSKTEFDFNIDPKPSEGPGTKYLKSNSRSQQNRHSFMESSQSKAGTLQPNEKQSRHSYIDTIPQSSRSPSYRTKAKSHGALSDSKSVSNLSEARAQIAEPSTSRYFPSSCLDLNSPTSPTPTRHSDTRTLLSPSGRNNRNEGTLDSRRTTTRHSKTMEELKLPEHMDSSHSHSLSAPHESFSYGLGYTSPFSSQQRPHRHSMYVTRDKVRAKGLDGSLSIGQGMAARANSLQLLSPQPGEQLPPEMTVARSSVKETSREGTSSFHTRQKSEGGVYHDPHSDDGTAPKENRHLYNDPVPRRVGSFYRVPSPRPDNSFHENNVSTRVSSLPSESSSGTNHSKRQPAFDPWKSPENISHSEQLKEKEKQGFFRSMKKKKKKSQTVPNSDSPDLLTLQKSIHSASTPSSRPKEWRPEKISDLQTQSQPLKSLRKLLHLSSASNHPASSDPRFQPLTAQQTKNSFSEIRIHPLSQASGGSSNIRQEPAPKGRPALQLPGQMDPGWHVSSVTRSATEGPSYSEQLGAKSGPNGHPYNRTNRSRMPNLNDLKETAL

The mark [9] stands for this setting: read-out: Niraparib (MK-4827) / %Ctrl @ 10000nM.
The mark [10] stands for this setting: read-out: Talazoparib (BMN 673) / %Ctrl @ 10000nM.
The mark [11] stands for this setting: read-out: Rucaparib / %Ctrl @ 10000nM, binding competition, % of control.
The mark [12] stands for this setting: read-out: Olaparib / %Ctrl @ 10000nM.

SMILES strings stand for the structures. Like-named read-outs stand apart in the source and are kept apart here.

Chain of CDKL3 (Q8IVW4 whole entry): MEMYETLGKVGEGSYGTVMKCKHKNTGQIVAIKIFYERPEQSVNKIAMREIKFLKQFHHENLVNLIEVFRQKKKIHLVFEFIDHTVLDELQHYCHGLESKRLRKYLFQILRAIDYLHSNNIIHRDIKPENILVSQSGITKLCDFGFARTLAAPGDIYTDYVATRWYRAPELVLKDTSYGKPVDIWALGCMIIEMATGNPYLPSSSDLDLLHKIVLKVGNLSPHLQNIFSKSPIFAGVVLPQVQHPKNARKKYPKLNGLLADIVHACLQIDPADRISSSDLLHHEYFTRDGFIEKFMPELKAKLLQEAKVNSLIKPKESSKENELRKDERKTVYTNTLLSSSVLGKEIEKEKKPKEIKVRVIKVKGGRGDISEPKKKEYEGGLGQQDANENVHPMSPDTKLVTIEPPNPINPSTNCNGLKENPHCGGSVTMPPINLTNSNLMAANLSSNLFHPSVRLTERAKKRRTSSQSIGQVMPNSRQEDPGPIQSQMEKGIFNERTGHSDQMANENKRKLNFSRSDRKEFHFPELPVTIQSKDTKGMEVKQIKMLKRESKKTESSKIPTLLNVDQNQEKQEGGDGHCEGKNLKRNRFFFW
Chain of CDK9 (P50750 whole entry): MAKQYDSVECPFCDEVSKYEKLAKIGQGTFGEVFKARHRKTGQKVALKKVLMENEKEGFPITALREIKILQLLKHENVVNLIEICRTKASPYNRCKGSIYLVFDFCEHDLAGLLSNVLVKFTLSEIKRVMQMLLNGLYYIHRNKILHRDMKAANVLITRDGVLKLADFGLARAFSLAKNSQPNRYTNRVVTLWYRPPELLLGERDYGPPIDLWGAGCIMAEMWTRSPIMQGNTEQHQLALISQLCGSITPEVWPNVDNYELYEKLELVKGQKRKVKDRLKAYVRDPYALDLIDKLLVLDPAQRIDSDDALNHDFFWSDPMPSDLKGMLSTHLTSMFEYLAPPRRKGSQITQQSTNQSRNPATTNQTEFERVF
Chain of CSNK1G2 (P78368 whole entry): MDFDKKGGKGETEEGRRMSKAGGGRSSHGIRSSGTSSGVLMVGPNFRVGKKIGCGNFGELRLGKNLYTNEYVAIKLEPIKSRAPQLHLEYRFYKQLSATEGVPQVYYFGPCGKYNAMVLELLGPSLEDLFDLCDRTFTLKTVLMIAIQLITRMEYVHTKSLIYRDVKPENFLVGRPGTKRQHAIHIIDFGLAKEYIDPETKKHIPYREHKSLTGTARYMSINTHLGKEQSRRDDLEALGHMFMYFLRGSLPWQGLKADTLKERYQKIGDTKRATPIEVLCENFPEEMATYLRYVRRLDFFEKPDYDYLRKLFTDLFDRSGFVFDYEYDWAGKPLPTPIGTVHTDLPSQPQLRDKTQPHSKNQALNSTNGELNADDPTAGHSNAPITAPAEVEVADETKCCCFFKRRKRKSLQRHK

In the case of `NC(=O)c1cccc2cn(-c3ccc([C@@H]4CCCNC4)cc3)nc12` [Niraparib], the percent of control binding at 10 µM in test [1] (setting [9]) turned out to be 100%; in test [2] (setting [9]), 78%; in test [3] (setting [9]) it was 98%; in test [4] (setting [9]) it was 64%; in test [5] (setting [9]) it was 100%; in test [6] (setting [9]) it was 95%. The percent of control binding at 10 µM in test [7] (setting [9]) worked out at 79%; in test [8] (setting [9]) it was 86%.

As to `Cn1ncnc1[C@H]1c2n[nH]c(=O)c3cc(F)cc(c23)N[C@@H]1c1ccc(F)cc1` [Talazoparib], the percent of control binding at 10 µM in test [1] (setting [10]) was 100%; in test [2] (setting [10]) it was 100%; in test [3] (setting [10]), 100%; in test [4] (setting [10]) it was 97%; in test [5] (setting [10]), 88%; in test [6] (setting [10]), 100%. Besides, the percent of control binding at 10 µM was determined as 91% in test [7] (setting [10]) and 100% in test [8] (setting [10]).

For `CNCc1ccc(-c2[nH]c3cc(F)cc4c3c2CCNC4=O)cc1` [Rucaparib], the percent of control binding at 10 µM in test [1] (setting [11]) was 78%; in test [2] (setting [11]), 83%; in test [3] (setting [11]), 74%; in test [4] (setting [11]) it was 100%; in test [5] (setting [11]), 100%; in test [6] (setting [11]), 92%. The figures for the percent of control binding at 10 µM in test [7] (setting [11]) and in test [8] (setting [11]) were 89% and 30%, respectively.

With `O=C(c1cc(Cc2n[nH]c(=O)c3ccccc23)ccc1F)N1CCN(C(=O)C2CC2)CC1` [Olaparib], the percent of control binding at 10 µM in test [1] (setting [12]) was 100%; in test [2] (setting [12]), 98%; in test [4] (setting [12]), 100%; in test [5] (setting [12]), 100%; in test [6] (setting [12]), 84%; in test [7] (setting [12]), 81%. For the same compound, the percent of control binding at 10 µM in test [8] (setting [12]) amounted to 98%.
